Results: patent US20070196902A1, “Method of detecting AZT resistance in HIV” (University of Pittsburgh, priority 2006, published 2007)
Read-outs that look alike come from different tables or passages of the source.

What was measured:
[1] = tested on: wild-type HIV-1LAI passaged in MT-2 cells in increasing concentrations of AZT; experiment: AZT susceptibility of virus passaged in increasing AZT, selection starting with wild-type HIV-1LAI; single-cycle assay in P4/R5 cells; assay type: cell-based; conditions: for Fold-Resistance: compared to wild-type passaged without AZT
Method: Selection of AZT-resistant viruses. Resistant virus was selected in two independent experiments by the passage of wild-type HIVLAI or HIVLAI containing the M41L/L210W/T215Y mutations (AZT^R HIVLAI) in MT-2 cells in increasing concentrations of AZT. To initiate each selection experiment, MT-2 cells (1×10^6) were pretreated for two hours with 0.5 μM and 25 μM AZT for wild-type HIVLAI and AZT^R HIVLAI, respectively, before virus was added. Viral replication was monitored by CPE. At +3/4 CPE (3 or 4 syncytia per field at 100× magnified field), cell-free supernatant was harvested and 0.1 ml of supernatant was added to fresh MT-2 cells to initiate a new passage. The concentration of AZT was doubled every three passages. The selection pressure was increased from an initial AZT concentration of 0.5 μM to a final concentration of 32 μM for wild-type HIVLAI, and from 25 μM to 150 μM for the AZT^R HIVLAI. The concentration of drug required to inhibit viral replication by 50% (IC50) was calculated every five passages to identify changes in AZT susceptibility, and fold-resistance was determined by dividing the IC50 of the mutant virus by the IC50 of wild-type HIV-1LAI. The genotype of the passaged virus was determined as described above.
(§1) Drug susceptibility assays. NRTI susceptibility was determined in P4/R5 cells as described previously (Parikh, U. M., et al. 2005. Antimicrob. Agents Chemother. 49:1139-44). Briefly, threefold dilutions of inhibitor were added to P4/R5 cells in triplicate and cells were infected with an amount of virus that produced 100 relative units of light (RLU) in no drug, virus control wells. After 48 hours, the cells were lysed (Gal-Screen; Tropix/Applied Biosystems, Foster City, Calif.) and the RLU was measured using a ThermoLabSystems luminometer (Waltham, Mass.). The IC50 and fold-resistance were calculated as described above. IC50 values from at least three independent experiments were log10 transformed and compared for statistically significant differences using the two-sample Student's t test.
Selection of AZT-resistant virus. Two independent AZT selection experiments were conducted. One starting with wild-type HIV-1LAI and the second starting with AZT HIV-1LAI (encoding M41L/L210W/T215Y). Both viruses were serially passaged in MT-2 cells in increasing concentrations of AZT. After every 5 passages, AZT susceptibility was measured in a single-cycle viral replication assay in P4/R5 cells (described in Materials and Methods). Viral RNA was extracted, converted to cDNA and the entire coding region of RT (residues 1-560) was PCR amplified and sequenced to monitor the appearance of mutations. In the selection experiment starting with HIV-1LAI, AZT susceptibility was reduced 66-fold by passage 35 and two polymerase domain TAMs were identified: D67N and K70R (Table 1).

[2] = tested on: Wild-type HIVLAI; experiment: Drug susceptibility assay in P4/R5 cells, recombinant virus; assay type: cell-based, HIV-1; conditions: Human immunodeficiency virus 1, P4/R5; Wild-type; mean ± SD, at least three experiments; read-out: IC50
Method: as §1
(§2) Construction of mutant recombinant HIV-1. Mutant recombinant plasmid clones of virus were generated by oligonucleotide site-directed mutagenesis as described previously (Shi, C., and J. W. Mellors. 1997. A recombinant retroviral system for rapid […] analysis of human immunodeficiency virus type 1 susceptibility to reverse transcriptase inhibitors. Antimicrob. Agents Chemother. 41:2781-5), using the p6HRT-MO plasmid. p6HRT-MO contains the entire RT and protease coding sequence as previously described (Le Grice, S. F., and F. Gruninger-Leitch. 1990. Rapid purification of homodimer and heterodimer HIV-1 reverse transcriptase by metal chelate affinity chromatography. Eur. J. Biochem. 187:307-14) and four silent restriction sites (Xma I, Mlu I, Xba I, and NgoM IV from the 5′ to 3′ end of RT at codons 14, 358, 490 and 554, respectively). After site-directed mutagenesis (QIAamp kit, QIAGEN, Valencia, Calif.), the mutated RT was ligated into pxxHIV-1LAI MO that contains the entire genome of HIV-1LAI and the same silent restriction sites as p6HRT-MO. Infectious virus was generated by electroporating the mutated xxHIV-1LAI MO plasmid into MT-2 cells as described above. All mutations in recombinant viruses were confirmed by full-length sequencing of the entire RT coding region.

[3] = tested on: HIVLAI RT 67N/70R/215I/371V; experiment: Drug susceptibility assay in P4/R5 cells, site-directed mutant; assay type: cell-based, HIV-1
Method: as §1, §2

[4] = tested on: HIVLAI RT 67N/70R/371V; experiment: as above; assay type: cell-based, HIV-1
Method: as §1, §2

[5] = tested on: HIVLAI RT A371V; experiment: as above; assay type: cell-based, HIV-1
Method: as §1, §2

[6] = tested on: HIVLAI RT D67N/K70R/A371V/Q509L; experiment: as above; assay type: cell-based, HIV-1
Method: as §1, §2

[7] = tested on: HIVLAI RT D67N/K70R/T215F; experiment: as above; assay type: cell-based, HIV-1
Method: as §1, §2

[8] = tested on: HIVLAI RT D67N/K70R/T215I/A371V/Q509L; experiment: as above; assay type: cell-based, HIV-1
Method: as §1, §2

[9] = tested on: HIVLAI RT Q509L; experiment: as above; assay type: cell-based, HIV-1
Method: as §1, §2

Cc1cn([C@H]2C[C@H](N=[N+]=[N-])[C@@H](CO)O2)c(=O)[nH]c1=O [AZT, 3′-azido-3′-dideoxythymidine] showed an IC50 ([1]; Human immunodeficiency virus 1, MT2, passage 1, AZT concentration 0.5 μM, read-out: IC50) of 0.2 µM, an IC50 ([1]; Human immunodeficiency virus 1, MT2, passage 10, AZT concentration 0.5 μM, read-out: IC50) of 0.3 µM and an IC50 ([1]; Human immunodeficiency virus 1, MT2, passage 20, AZT concentration 0.5 μM, read-out: IC50) of 0.7 µM. It also gave an IC50 ([1]; Human immunodeficiency virus 1, MT2, passage 25, AZT concentration 1.0 μM, mutations: None, read-out: IC50) of 0.7 µM, an IC50 ([1]; Human immunodeficiency virus 1, MT2, passage 30, AZT concentration 2.0 μM, D67D/N, K70K/R, read-out: IC50) of 3 µM and an IC50 ([1]; Human immunodeficiency virus 1, MT2, passage 35, AZT concentration 2.0 μM, D67N, K70R, read-out: IC50) of 10 µM. The IC50 ([1]; Human immunodeficiency virus 1, MT2, passage 40, AZT concentration 4.0 μM, D67N, K70R, A371A/V, Q509Q/L, read-out: IC50) was 10 µM, the IC50 ([1]; Human immunodeficiency virus 1, MT2, passage 55, AZT concentration 16 μM, D67N, K70R, T215T/I, A371A/V, Q509Q/L, read-out: IC50) was 39 µM and the IC50 ([1]; Human immunodeficiency virus 1, MT2, passage 60, AZT concentration 32 μM, D67N, K70R, T215I, A371A/V, Q509L, read-out: IC50) was 56 µM. The IC50 ([1]; Human immunodeficiency virus 1, MT2, passage 65, AZT concentration 32 μM, D67N, K70R, T215I/F, A371A/V, Q509L) was no less than 810 µM, the Fold-Resistance ([1]; passage 25, mutations: None) was 4.1 fold and the Fold-Resistance ([1]; passage 30, D67D/N, K70K/R) was 26 fold. The Fold-Resistance ([1]; passage 35, D67N, K70R) was 66 fold, the Fold-Resistance ([1]; passage 40, D67N, K70R, A371A/V, Q509Q/L) was 86 fold and the Fold-Resistance ([1]; passage 55, D67N, K70R, T215T/I, A371A/V, Q509Q/L) was 255 fold. It also gave a Fold-Resistance ([1]; passage 60, D67N, K70R, T215I, A371A/V, Q509L) of 489 fold, an IC50 [2] of 0.2 ± 0.1 µM and a Fold-Resistance ([3]; 67N/70R/215I/371V compared to wild-type) of 2.6 fold. It also gave an IC50 ([3]; Human immunodeficiency virus 1, P4/R5, 67N/70R/215I/371V, mean ± SD) of 0.6 ± 0.3 µM, a Fold-Resistance ([4]; 67N/70R/371V compared to wild-type) of 6.4 fold and an IC50 ([4]; Human immunodeficiency virus 1, P4/R5, 67N/70R/371V, mean ± SD) of 1.4 ± 0.5 µM. For the same compound, the Fold-Resistance ([5]; A371V compared to wild-type) was 0.7 fold, the IC50 ([5]; Human immunodeficiency virus 1, P4/R5, A371V, mean ± SD) was 0.2 ± 0.04 µM and the Fold-Resistance ([6]; 67N/70R/371V/509L compared to wild-type) was 39 fold. It also gave an IC50 ([6]; Human immunodeficiency virus 1, P4/R5, 67N/70R/371V/509L, mean ± SD) of 9.1 ± 5.2 µM, a Fold-Resistance ([7]; 67N/70R/215F compared to wild-type) of 18 fold and an IC50 ([7]; Human immunodeficiency virus 1, P4/R5, 67N/70R/215F, mean ± SD) of 3.8 ± 2.1 µM. For the same compound, the Fold-Resistance ([8]; 67N/70R/215I/371V/509L compared to wild-type) was 41 fold, the IC50 ([8]; Human immunodeficiency virus 1, P4/R5, 67N/70R/215I/371V/509L, mean ± SD) was 9.4 ± 6.7 µM and the IC50 ([9]; Human immunodeficiency virus 1, P4/R5, Q509L, mean ± SD) was 0.3 ± 0.2 µM. The Fold-Resistance ([9]; Q509L compared to wild-type) was 1.3 fold.
